Test results published in patent US8802597B2, “Herbicidal pyrimidines” (E I du Pont de Nemours and Company, priority 2003, dated 2014).

Assays:
Assay type in all cases: in vivo
[1] = test system: giant foxtail (Setaria faberii); test: Test B pre/postemergence
How it was run: (§1)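 Under greenhouse conditions, seeded pots and young plants (1- to 4-leaf, 2 to 18 cm) were treated at the same time with test chemicals in a non-phytotoxic solvent mixture containing surfactant. Response was assessed visually after 13 to 15 days, from 0 (no effect) to 100 (complete control).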

[2] = test system: pigweed (Amaranthus retroflexus); test: Test B pre/postemergence
How it was run: as §1

[3] = test system: wheat (Triticum aestivum); test: Test B pre/postemergence
How it was run: as §1

[4] = test system: crabgrass (Digitaria sanguinalis); test: Test B pre/postemergence
How it was run: as §1

[5] = test system: cocklebur (Xanthium strumarium); test: Test B pre/postemergence
How it was run: as §1

[6] = test system: morningglory (Ipomoea coccinea); test: Test B pre/postemergence
How it was run: as §1

[7] = test system: Surinam grass (Brachiaria decumbens); test: Test B pre/postemergence
How it was run: as §1

corn (Zea mays) = test: Test B pre/postemergence
How it was run: as §1

[8] = test system: lambsquarters (Chenopodium album); test: Test B pre/postemergence
How it was run: as §1

[9] = test system: velvetleaf (Abutilon theophrasti); test: Test B pre/postemergence
How it was run: as §1

[10] = test system: barnyardgrass (Echinochloa crus-galli); test: Test B pre/postemergence
How it was run: as §1

wild oat (Avena fatua) = test: Test B postemergence; settings: for Oat, Wild plant response rating: scale 0 to 100 (0 no effect, 100 complete control); for Plant response rating, Oat, Wild: 500 g ai/ha, scale 0 to 100
How it was run: as §1

[11] = test system: blackgrass (Alopecurus myosuroides); test: Test B postemergence; settings: for Blackgrass plant response rating: scale 0 to 100 (0 no effect, 100 complete control); for Plant response rating, Blackgrass: 500 g ai/ha, scale 0 to 100
How it was run: as §1

rice (Oryza sativa) = test: Test B flooded paddy test; settings: Flood, 1000 g ai/ha; scale 0 to 100
How it was run: (§2)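 Visual injury scoring (0 = no effect, 100 = complete control) versus controls made 13 to 15 days after treatment in the greenhouse. Test species were grown in flooded paddy to the 2-leaf stage: rice, barnyardgrass, umbrella sedge, duck salad.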

[12] = test system: duck salad (Heteranthera limosa); test: Test B flooded paddy test; settings: Flood, 1000 g ai/ha; scale 0 to 100
How it was run: as §2

[13] = test system: umbrella sedge (Cyperus difformis); test: Test B flooded paddy test; settings: Flood, 1000 g ai/ha; scale 0 to 100
How it was run: as §2

[14] = test system: barnyardgrass (Echinochloa crus-galli); test: Test B flooded paddy test; settings: Flood, 1000 g ai/ha; scale 0 (no effect) to 100 (complete control)
How it was run: as §2

[15] = Postemergence, 62 g ai/ha, scale 0 to 100 (0 no effect, 100 complete control)
[16] = Postemergence, 500 g ai/ha, scale 0 to 100
[17] = Preemergence, 62 g ai/ha, scale 0 to 100, 0 no effect, 100 complete control
[18] = Preemergence, 500 g ai/ha, scale 0 to 100 (0 no effect, 100 complete control)
[19] = Postemergence, 125 g ai/ha, scale 0 to 100 (0 no effect, 100 complete control)
[20] = Preemergence, 125 g ai/ha, scale 0 to 100 (0 no effect, 100 complete control)

CCOC(=O)C(Cl)c1nc(C2CC2)nc(N)c1Br (stereo not drawn) [Compound 31] was tested, and the “Foxtail, Giant plant response rating” value [1, 15] was 0, the “Plant response rating, Foxtail, Giant” value [1, 16] was 0 and the “Plant response rating, Foxtail, Giant” value [1, 17] was 10. The “Foxtail, Giant plant response rating” value [1, 18] was 80, the “Pigweed plant response rating” value [2, 15] was 20 and the “Plant response rating, Pigweed” value [2, 16] was 50. For the same molecule, the “Plant response rating, Pigweed” value [2, 17] was 90, the “Pigweed plant response rating” value [2, 18] was 100 and the “Wheat plant response rating” value [3, 15] was 0. The “Plant response rating, Wheat” value [3, 16] was 0, the “Plant response rating, Wheat” value [3, 17] was 40 and the “Wheat plant response rating” value [3, 18] was 70. For the same molecule, the “Crabgrass plant response rating” value [4, 15] was 0, the “Plant response rating, Crabgrass” value [4, 16] was 30 and the “Plant response rating, Crabgrass” value [4, 17] was 10. For the same molecule, the “Crabgrass plant response rating” value [4, 18] was 80, the “Cocklebur plant response rating” value [5, 15] was 70 and the “Plant response rating, Cocklebur” value [5, 16] was 80. The “Plant response rating, Cocklebur” value [5, 17] was 90, the “Cocklebur plant response rating” value [5, 18] was 100 and the “Morningglory plant response rating” value [6, 15] was 50. The “Plant response rating, Morningglory” value [6, 16] was 70, the “Plant response rating, Morningglory” value [6, 17] was 90 and the “Morningglory plant response rating” value [6, 18] was 100. The “Surinam Grass plant response rating” value [7, 15] was 0, the “Plant response rating, Surinam Grass” value [7, 16] was 0 and the “Plant response rating, Surinam Grass” value [7, 17] was 20. For the same molecule, the “Surinam Grass plant response rating” value [7, 18] was 60, the “Corn plant response rating” value (corn (Zea mays); [15]) was 0 and the “Plant response rating, Corn” value (corn (Zea mays); [16]) was 0. The “Plant response rating, Corn” value (corn (Zea mays); [17]) was 0, the “Corn plant response rating” value (corn (Zea mays); [18]) was 40 and the “Lambsquarters plant response rating” value [8, 15] was 40. For the same molecule, the “Plant response rating, Lambsquarters” value [8, 16] was 70, the “Plant response rating, Lambsquarters” value [8, 17] was 90 and the “Lambsquarters plant response rating” value [8, 18] was 100. For the same molecule, the “Velvetleaf plant response rating” value [9, 15] was 10, the “Plant response rating, Velvetleaf” value [9, 16] was 60 and the “Plant response rating, Velvetleaf” value [9, 17] was 80. For the same molecule, the “Velvetleaf plant response rating” value [9, 18] was 90, the “Barnyardgrass plant response rating” value [10, 15] was 0 and the “Plant response rating, Barnyardgrass” value [10, 16] was 0. For the same molecule, the “Plant response rating, Barnyardgrass” value [10, 17] was 20, the “Barnyardgrass plant response rating” value [10, 18] was 70 and the “Oat, Wild plant response rating” value (wild oat (Avena fatua); 62 g ai/ha) was 0. For the same molecule, the “Plant response rating, Oat, Wild” value (wild oat (Avena fatua)) was 0, the “Blackgrass plant response rating” value ([11]; 62 g ai/ha) was 0 and the “Plant response rating, Blackgrass” value [11] was 0. The “Plant response rating, Rice” value (rice (Oryza sativa)) was 20, the “Plant response rating, Ducksalad” value [12] was 60 and the “Plant response rating, Sedge, Umbrella” value [13] was 0. The “Plant response rating, Barnyardgrass” value [14] was 30.
For CCOC(=O)Cc1nc(C2CC2)nc(N=CN(C)C)c1Br [Compound 33], the “Foxtail, Giant plant response rating” value [1, 19] was 10, the “Plant response rating, Foxtail, Giant” value [1, 16] was 40 and the “Plant response rating, Foxtail, Giant” value [1, 20] was 0. The “Foxtail, Giant plant response rating” value [1, 18] was 40, the “Pigweed plant response rating” value [2, 19] was 60 and the “Plant response rating, Pigweed” value [2, 16] was 80. For the same molecule, the “Plant response rating, Pigweed” value [2, 20] was 80, the “Pigweed plant response rating” value [2, 18] was 90 and the “Wheat plant response rating” value [3, 19] was 20. For the same molecule, the “Plant response rating, Wheat” value [3, 16] was 20, the “Plant response rating, Wheat” value [3, 20] was 0 and the “Wheat plant response rating” value [3, 18] was 50. The “Crabgrass plant response rating” value [4, 19] was 10, the “Plant response rating, Crabgrass” value [4, 16] was 20 and the “Plant response rating, Crabgrass” value [4, 20] was 0. For the same molecule, the “Crabgrass plant response rating” value [4, 18] was 50, the “Cocklebur plant response rating” value [5, 19] was 60 and the “Plant response rating, Cocklebur” value [5, 16] was 80. The “Plant response rating, Cocklebur” value [5, 20] was 80, the “Cocklebur plant response rating” value [5, 18] was 90 and the “Morningglory plant response rating” value [6, 19] was 40. For the same molecule, the “Plant response rating, Morningglory” value [6, 16] was 70, the “Plant response rating, Morningglory” value [6, 20] was 0 and the “Morningglory plant response rating” value [6, 18] was 90. For the same molecule, the “Surinam Grass plant response rating” value [7, 19] was 0, the “Plant response rating, Surinam Grass” value [7, 16] was 0 and the “Plant response rating, Surinam Grass” value [7, 20] was 0. The “Surinam Grass plant response rating” value [7, 18] was 40, the “Corn plant response rating” value (corn (Zea mays); [19]) was 0 and the “Plant response rating, Corn” value (corn (Zea mays); [16]) was 0. The “Plant response rating, Corn” value (corn (Zea mays); [20]) was 10, the “Corn plant response rating” value (corn (Zea mays); [18]) was 30 and the “Lambsquarters plant response rating” value [8, 19] was 60. The “Plant response rating, Lambsquarters” value [8, 16] was 70, the “Plant response rating, Lambsquarters” value [8, 20] was 90 and the “Lambsquarters plant response rating” value [8, 18] was 100. The “Velvetleaf plant response rating” value [9, 19] was 40, the “Plant response rating, Velvetleaf” value [9, 16] was 50 and the “Plant response rating, Velvetleaf” value [9, 20] was 70. For the same molecule, the “Velvetleaf plant response rating” value [9, 18] was 80, the “Barnyardgrass plant response rating” value [10, 19] was 0 and the “Plant response rating, Barnyardgrass” value [10, 16] was 20. For the same molecule, the “Plant response rating, Barnyardgrass” value [10, 20] was 20, the “Barnyardgrass plant response rating” value [10, 18] was 50 and the “Oat, Wild plant response rating” value (wild oat (Avena fatua); 125 g ai/ha) was 20. For the same molecule, the “Plant response rating, Oat, Wild” value (wild oat (Avena fatua)) was 20, the “Blackgrass plant response rating” value ([11]; 125 g ai/ha) was 40 and the “Plant response rating, Blackgrass” value [11] was 40. The “Plant response rating, Rice” value (rice (Oryza sativa)) was 0, the “Plant response rating, Ducksalad” value [12] was 0 and the “Plant response rating, Sedge, Umbrella” value [13] was 0. The “Plant response rating, Barnyardgrass” value [14] was 0.
CCOC(=O)C(Cl)(Cl)c1nc(C2CC2)nc(N)c1Br [Compound 34] was tested, and the “Foxtail, Giant plant response rating” value [1, 19] was 20, the “Plant response rating, Foxtail, Giant” value [1, 16] was 50 and the “Plant response rating, Foxtail, Giant” value [1, 20] was 0. For the same molecule, the “Foxtail, Giant plant response rating” value [1, 18] was 20, the “Pigweed plant response rating” value [2, 19] was 50 and the “Plant response rating, Pigweed” value [2, 16] was 80. For the same molecule, the “Plant response rating, Pigweed” value [2, 20] was 40, the “Pigweed plant response rating” value [2, 18] was 80 and the “Wheat plant response rating” value [3, 19] was 30. The “Plant response rating, Wheat” value [3, 16] was 40, the “Plant response rating, Wheat” value [3, 20] was 0 and the “Plant response rating, Wheat” value [3, 18] was 10. For the same molecule, the “Crabgrass plant response rating” value [4, 19] was 0, the “Plant response rating, Crabgrass” value [4, 16] was 30 and the “Plant response rating, Crabgrass” value [4, 20] was 0. For the same molecule, the “Crabgrass plant response rating” value [4, 18] was 70, the “Cocklebur plant response rating” value [5, 19] was 80 and the “Plant response rating, Cocklebur” value [5, 16] was 80. The “Plant response rating, Cocklebur” value [5, 20] was 30, the “Cocklebur plant response rating” value [5, 18] was 60 and the “Morningglory plant response rating” value [6, 19] was 60. The “Plant response rating, Morningglory” value [6, 16] was 70, the “Plant response rating, Morningglory” value [6, 20] was 20 and the “Morningglory plant response rating” value [6, 18] was 70. For the same molecule, the “Surinam Grass plant response rating” value [7, 19] was 10, the “Plant response rating, Surinam Grass” value [7, 16] was 50 and the “Plant response rating, Surinam Grass” value [7, 20] was 10. For the same molecule, the “Surinam Grass plant response rating” value [7, 18] was 50, the “Corn plant response rating” value (corn (Zea mays); [19]) was 0 and the “Plant response rating, Corn” value (corn (Zea mays); [16]) was 0. The “Plant response rating, Corn” value (corn (Zea mays); [20]) was 0, the “Corn plant response rating” value (corn (Zea mays); [18]) was 0 and the “Lambsquarters plant response rating” value [8, 19] was 70. The “Plant response rating, Lambsquarters” value [8, 16] was 90, the “Plant response rating, Lambsquarters” value [8, 20] was 50 and the “Lambsquarters plant response rating” value [8, 18] was 80. For the same molecule, the “Velvetleaf plant response rating” value [9, 19] was 30, the “Plant response rating, Velvetleaf” value [9, 16] was 60 and the “Plant response rating, Velvetleaf” value [9, 20] was 30. For the same molecule, the “Velvetleaf plant response rating” value [9, 18] was 60, the “Barnyardgrass plant response rating” value [10, 19] was 0 and the “Plant response rating, Barnyardgrass” value [10, 16] was 60. The “Plant response rating, Barnyardgrass” value [10, 20] was 0, the “Barnyardgrass plant response rating” value [10, 18] was 0 and the “Oat, Wild plant response rating” value (wild oat (Avena fatua); 125 g ai/ha) was 30. The “Plant response rating, Oat, Wild” value (wild oat (Avena fatua)) was 40, the “Blackgrass plant response rating” value ([11]; 125 g ai/ha) was 60 and the “Plant response rating, Blackgrass” value [11] was 70. The “Plant response rating, Rice” value (rice (Oryza sativa)) was 0, the “Plant response rating, Ducksalad” value [12] was 0 and the “Plant response rating, Sedge, Umbrella” value [13] was 0. For the same molecule, the “Plant response rating, Barnyardgrass” value [14] was 0.
